Data published in ChEMBL document CHEMBL3988442, “University of Dundee, Small-Polar-MMV Screening Library” (2021).

Columns and labels:
[1] = microbe, parasite or virus in culture; settings: Mycobacterium tuberculosis, 96 h, read-out: pIC50 (converted)
[2] = microbe, parasite or virus in culture; settings: Mycobacterium tuberculosis, 72 h, read-out: pIC50 (converted)

Row | SMILES | IC50 [1] [µM] | IC50 [2] [µM]
1 | CC(C)c1ccc2c(c1)C(N)C(=O)N2 (configuration not stated) | > 501 | > 501
2 | CN(Cc1ccc(Br)s1)CC(O)COCCO (configuration not stated) | 165 | 236
3 | NC(=O)C(NC(=O)c1sccc1Br)c1ccccc1 (configuration not stated) | > 501 | > 501
4 | CCN(CCC(N)=O)Cc1cccc2c1OCO2 | 272 | 258
5 | Cc1ccc(CN(Cc2ccncc2)C2CCN(C)CC2)s1 | > 50.1 | > 50.1
6 | O[C@@H]1CNC[C@H]1n1ccnn1 | 289 | 286
7 | CC(C)c1cc(C(=O)N(C)C(C)c2ccon2)on1 (configuration not stated) | 437 | > 501
8 | N#CC1(NC(=O)COc2cc(Cl)cc(Cl)c2)CCSC1 (configuration not stated) | > 50.1 | > 50.1
9 | CN(Cc1nccs1)C(=O)C1COc2ccccc2C1 (configuration not stated) | 195 | 242
10 | COC(=O)C(C)OC(=O)c1cccnc1SC (configuration not stated) | > 501 | > 501
11 | COc1cccc(C2=NN=C(NC3CC3)SC2)c1 | 111 | 97.4
12 | Cc1nc(COc2ccc(C(=O)OCC#N)cc2)no1 | > 501 | > 501
13 | CCc1nc(CCN)cs1 | 152 | 113
14 | N#Cc1cc(Br)cc(S(=O)(=O)NCCCN)c1 | > 501 | > 501
15 | CSc1ccccc1NC(=O)CCn1cnc(C#N)n1 | > 501 | > 501
16 | NC(=O)CCS(=O)(=O)CCN1CCCCCC1 | > 501 | 158
17 | COc1ccnc(NCc2ccc(CO)c(F)c2)n1 | > 501 | > 501
18 | CC(C)c1ccc(OCn2ccc(C(=O)N3CCCC3)n2)cc1 | 24.5 | 26.5
19 | Clc1ccc(-c2nnc([C@H]3CCN(C4CCCCC4)C3)o2)cc1 | 24.2 | 7.04
20 | c1ccc2[nH]c(NCC3CCCO3)nc2c1 (configuration not stated) | 166 | > 501
21 | CN(Cc1cnn(C)c1)C(=O)c1ccc(=O)n(C)n1 | > 50.1 | > 50.1
22 | O=C(c1cc(COc2ccc3c(c2)OCO3)[nH]n1)N1CCCCO1 | 17.8 | > 50.1

Row | SMILES | IC50 [1] [µM] | IC50 [2] [µM]
23 | NCC1CCCN1CCc1ccccc1 (configuration not stated) | > 501 | > 501
24 | CC1(C)CN(C(=O)c2cc(Br)c[nH]2)CCO1 | 290 | 136
25 | CCNc1cc2c(nn1)CCN(C(=O)C1COc3ccccc3C1)C2 (configuration not stated) | 45 | 44.6
26 | COc1ccc(CNc2ccncc2F)cc1C#N | > 501 | > 501
27 | CCC(N)C(=O)N1CCN(c2ccc(F)cc2Cl)CC1 (configuration not stated) | 266 | 322
28 | Cc1cnc(N2C(=O)CSC2c2ccc(N(C)C)cc2)s1 (configuration not stated) | 5.45 | 7.14
29 | O=C(CC1C=CCC1)N1CCN(c2ccccn2)CC1 (configuration not stated) | 407 | 167
30 | Cc1ccc(-c2noc([C@@H]3Cc4nc[nH]c4CN3)n2)cc1 | 2.31 | 1.94
31 | COc1cccc(OC2CNC2)c1 | > 501 | > 501
32 | NCC(c1cccs1)N1CCCC1 (configuration not stated) | 494 | 156
33 | CCOC(=O)C(C)Nc1ccc2c(c1)CCCC(=O)N2 (configuration not stated) | > 501 | > 501
34 | COc1ccc(NC(C(N)=O)c2ccc(Br)cc2)cn1 (configuration not stated) | 198 | 148
35 | CN(C)C(=O)CN1CCOC(CCc2ccccc2)C1 (configuration not stated) | > 501 | > 501
36 | COc1coc(CN2CCCC(CCc3ccccc3F)C2)cc1=O (configuration not stated) | 13.3 | 47.3
37 | CC(C)c1cccc(CN[C@H](CO)C(C)C)n1 | > 501 | 303
38 | NC(=O)c1ccsc1NC(=O)CCN1CCCC1 | 248 | 204
39 | CCOc1cccc(CN(C)S(=O)(=O)c2cccs2)n1 | 191 | 144
40 | COC(=O)C1CC(c2ccccc2)=NO1 (configuration not stated) | > 501 | > 501
41 | COc1ccc(-c2cc(NCCO)nc(N)n2)cc1C | > 501 | 280
42 | Cc1csc(CCN)n1 | > 501 | > 501
43 | Cc1ccc(C(=O)CCN2CCOCC2C(N)=O)cc1 (configuration not stated) | 152 | 59
44 | CC(C)COc1cncc(N(C)C2CCN(c3ncccn3)CC2)n1 | 40.6 | 30

Row | SMILES | IC50 [1] [µM] | IC50 [2] [µM]
45 | CSCCOC(=O)c1ccn(C(C)C)n1 | 248 | 241
46 | NCc1cccc(-c2nc(-c3ccncc3)no2)c1 | 286 | > 501
47 | COc1c(C)cc(Br)cc1C(=O)Nc1nnn(C)n1 | 209 | 206
48 | CC(C)(O)Cn1nnc(-c2cccs2)n1 | > 501 | > 501
49 | OCCN1CCN(c2nc(-c3ccccc3)no2)CC1 | > 501 | 83.7
50 | Cc1cccc(NCCNC(=O)c2ccccc2)n1 | > 501 | > 501
51 | COCCN(C)CC1CCCN1S(=O)(=O)c1cccc(F)c1F (configuration not stated) | > 50.1 | 15
52 | CCCc1nnc(NC2CCN(C(=O)OCC)CC2)o1 | 72 | 180
53 | Cc1cccc(OCC(O)CN)c1 (configuration not stated) | 345 | 179
54 | Cc1cc(NC(=O)Cc2ccc3c(c2)OCCO3)no1 | > 501 | 271
55 | NCC(=O)N1CCCC(CCc2ccc(F)cc2F)C1 (configuration not stated) | 310 | 137
56 | Cc1nc(C(=O)NCCN2CCCC2)c(C)s1 | > 501 | 308
57 | COCC(=O)NC1CCc2ccccc21 (configuration not stated) | 124 | 114
58 | CC(C)N(C)S(=O)(=O)NC1CCOc2ccccc21 (configuration not stated) | > 501 | 340
59 | CCc1noc(CSc2n[nH]c(-c3ccccn3)n2)n1 | 25.1 | > 50.1
60 | CNCc1nc(C(F)(F)F)no1 | > 501 | > 501
61 | COc1cc(Cl)cc(CN2CCCC(N3CCCC3)C2)c1OC (configuration not stated) | 28.3 | 23.3
62 | CC(C)S(=O)(=O)CCCn1nnc(-c2ccsc2)n1 | 94.9 | 56.7
63 | CC(C)c1nnc(CN(C)Cc2ccccc2-c2ccccc2)o1 | 11.8 | 15.8
64 | NCc1nc(-c2ccc(OC(F)(F)F)cc2)no1 | 190 | 70.7
65 | c1ccc2oc(NC3CCCN(Cc4noc(C5CC5)n4)C3)nc2c1 (configuration not stated) | 13.5 | 24.9
66 | O=c1c2ccccc2nc2n1C(CSc1ccc(F)cc1)CN2 (configuration not stated) | > 50.1 | > 50.1

Row | SMILES | IC50 [1] [µM] | IC50 [2] [µM]
67 | CC(C)CC(C)N(C)Cc1nnc(-c2ccco2)o1 (configuration not stated) | 14.9 | 11.7
68 | COCCNC(=O)c1cc(-c2ccccc2F)no1 | 127 | 195
69 | CSc1ccc2c(c1)CCN(C(=O)C1CCNC1)C2 (configuration not stated) | > 501 | 168
70 | CNCC(=O)NC(C)c1nc(-c2ccc(Br)cc2)no1 (configuration not stated) | 261 | 197
71 | O=C(c1ccc(Cn2cnnn2)cc1)N1CCC(c2ccncc2)CC1 | > 50.1 | > 50.1
72 | CCS(=O)(=O)N1CCCCC1c1nc(C(C)C)no1 (configuration not stated) | > 50.1 | > 50.1
73 | CCn1c(C(=O)N2CCOCC2C)cc2ccccc21 (configuration not stated) | 303 | 191
74 | CCC(CO)NC(=O)Cc1ccc(NC(=O)CC2=CCCCC2)cc1 (configuration not stated) | > 50.1 | > 50.1
75 | Cc1cc2n(n1)CC(CNC1CCN(C3CC3)CC1)CN2 (configuration not stated) | > 50.1 | > 50.1
76 | CC(=O)Nc1ccc(C(=O)N(C)Cc2cccs2)cc1 | 272 | 307
77 | Cc1ccc(C(C)(C)CN(C)C(=O)CCN)cc1 | > 501 | 64.1
78 | COc1ccc(C(=O)NC2COc3ccccc3C2)cc1OCC(=O)O (configuration not stated) | 26 | > 50.1
79 | CN(C)c1ncnc2c1CCN(C(=O)CN1CCCCC1)C2 | > 50.1 | > 50.1
80 | Cc1cc(C)n(CC(=O)NCc2ccc(F)cc2)n1 | > 501 | 216
81 | CCCc1cc(C(=O)N2CCCN(C)CC2)cs1 | > 501 | > 501
82 | O=C(c1cc(Br)c[nH]1)N1CCN2CCCCC2C1 (configuration not stated) | > 501 | 232
83 | N#CC1(NC(=O)CCc2ccc(Cl)s2)CCOCC1 | > 501 | 236
84 | NC(=O)C1CCN(CCOc2ccc(Br)cc2)C1 (configuration not stated) | > 501 | > 501
85 | Fc1ccccc1CN1CCC[C@H](Cn2nnc(-c3cccs3)n2)C1 | 26.3 | 12.9
86 | CCN1CCCC1CNC(=O)c1cccc(C)n1 (configuration not stated) | > 501 | > 501
87 | CCNc1cccc(OC)c1 | 144 | 109
88 | CNC(=O)[C@@H](C)NC(=O)c1ccc(-c2ccc(C)o2)s1 | 278 | 297

Row | SMILES | IC50 [1] [µM] | IC50 [2] [µM]
89 | NC(=O)NC(=O)CCN1CCCc2c(Br)cccc2C1 | 96 | 48
90 | Cc1cc(C2CCC2)nc(N2CCNC(=O)C2)n1 | 44.3 | 119
91 | NCC1CN(Cc2c(Cl)cncc2Cl)CCO1 (configuration not stated) | > 501 | 70.8
92 | COCCCN(C)S(=O)(=O)c1ccc(Br)cn1 | 206 | 278
93 | CN(CCn1cnnc1)c1ccc2ccc(F)cc2n1 | 259 | 212
94 | Cc1ccc2nc(C3CCCN3Cc3nnc(C)s3)[nH]c2c1 (configuration not stated) | > 50.1 | > 50.1
95 | N#Cc1ccc(OCC(=O)Nc2ccccn2)cc1 | > 501 | 247
96 | CN(C)c1cc(C(=O)Nc2ccccc2F)ccn1 | 321 | 237
97 | O=C(NCC1CC1)c1noc(-c2ccccc2F)n1 | 99.7 | 16.4
98 | O=C(CSc1cnn[nH]1)N1CCc2ccccc2C1 | > 501 | > 501
99 | COc1ccc2c(c1)CN(C(=O)C1CCCOC1)CC2 (configuration not stated) | > 501 | > 501
100 | O=C(NCC(O)C1CCCCC1)[C@@H](O)c1ccccc1 (some centres not stated) | 189 | 86.1
101 | CCC(C)C(=O)NCCNc1ccc(C(F)(F)F)cn1 (configuration not stated) | 57.7 | 51.5
102 | CCC(N)C(=O)Nc1ccc2c(c1)C(=O)CCC2 (configuration not stated) | 137 | 163
103 | OCCNC1CCCC1 | > 501 | > 501
104 | NCc1cnn(-c2cccc(Cl)c2)c1 | 260 | 258
105 | CCN1CCN(C(C)CNC(=O)Cn2cnnn2)CC1 (configuration not stated) | > 501 | > 501
106 | N#Cc1cccc(S(=O)(=O)N2CCCCC2CCN2CCCC2)c1 (configuration not stated) | 8.72 | 14.3
